Source: patent publication US20220221458A1, “NOROVIRUS-BINDING PEPTIDE” (Kao Corporation, priority 2019, published 2022)

Test system: norovirus VLPs (GII.4, GII.3, GII.17)
Test: In vitro selection by cDNA display against VLPs with appearance frequency analysis of sequences
Conditions: count among peptide aptamer sequences obtained after in vitro selection cycles (7 cycles GII.4, 5 cycles GII.3 and GII.17)
Experimental: The constructed cDNA display and VLPs were incubated in 100 μL of a dialysis selection buffer (20 mM HEPES (pH 7.4), 150 mM NaCl, and 0.05% s Tween 20) at the concentrations shown in Table 9 below at 25° C. for 30 minutes. Subsequently, the resultant was diluted to 1 mL with the dialysis selection buffer, and was put in Float-A-Lyzer G2 Dialysis Device CE, 1000kD MWCO (manufactured by Spectrum Laboratories, Inc.) and was dialyzed with 1 L of the dialysis selection buffer as the external solution at 25° C. During the dialysis, the external solution was replaced with new one 3 times every 2 hours, and the dialysis was performed overnight (for 8 hours) after the 4th replacement. The dialysis product was concentrated with Amicon Ultra 100K (manufactured by Merck Millipore S.A.S.) at 14,000×g for 5 minutes.
To an immunoplate (C-BOTTOM, CLEAR, MICROLON (registered trademark), HIGH BINDING, manufactured by Greiner Bio-One), 100 μL of 3 μg/mL GII.3 or GII.17 VLP solution was added and immobilization was performed at 4° C. overnight. Subsequently, the solution was discarded, and 200 μL of a blocking agent (EMD Millipore™ Blok™ NSB Blocking agents, Thermo Fisher Scientific) was added, followed by gently stirring at room temperature for 2 hours for blocking. On this occasion, wells not immobilizing the VLP were also subjected to similar blocking to be used in preselection.
The solution was discarded from the wells, the wells were washed with 200 μL of a wash buffer (10 mM Hepes (pH 7.4), 150 mM NaCl, and 0.05% Tween 20) three times, and 100 μL of cDNA display (constructed from 1.5 pmol of mRNA-linker) was then put in the wells not immobilizing the VLP, followed by gently stirring at room temperature for 30 minutes to perform preselection. Subsequently, the supernatant containing cDNA display that had not bound to the blocking agent was put in the wells immobilizing the VLP, followed by gently stirring at room temperature for 30 minutes to be bound to the VLP. The supernatant was discarded, washing with 100 μL of the wash buffer was performed four times, and 100 μL of a 5′ SDS solution was then added, followed by incubation at 50° C. for 15 minutes to elute the bound cDNA display.
Subsequently, the VLP-cDNA display complex obtained above was diluted to 100 μL with a dialysis selection buffer, and 10 μL of a coprecipitating agent (Quick-Precip Plus Solution, manufactured by EdgeBio) and 220 μL of 100% ethanol were added, followed by centrifugation at 20,000×g for 5 minutes. Subsequently, the supernatant was discarded, and 1 mL of 70, ethanol was added for rinsing. […] The PCR program was (a) 98° C. for 2 minutes, (b) 95° C. for 20 seconds, (c) 69° C. for 20 seconds, (d) 72° C. for 20 seconds (steps (b) to (d) were performed 25 cycles), and (e) 72° C. for 1 minute.
After the in vitro selection cycle (7 cycles for GII.4 and 5 cycles for GII.3 and GII.17 based on the libraries of 7 cycles obtained by GII.4 dialysis), a sequence library was prepared by the following method, and the sequence information was analyzed. The preparation of the sequence library and the sequencing were performed according to the 16S Metagenomic Sequencing Library Preparation protocol (manufactured by Illumina, Inc.).
The Fastq file of the obtained sequence was converted to a Fasta file, all of the obtained sequences were simultaneously translated from the first base of the start codon (ATG) at position 115 to the third base of the cysteine codon (TGC) at position 156 of the library sequence (SEQ ID NO: 279) using software MEGA.

Substance	Appearance Frequency
103 (AHLHCD; Designed peptide) [compound 103]	7
209 (LNDMSF; Designed peptide) [compound 209]	6
25 (NLYDRF; Designed peptide) [compound 25]	12
231 (RGGRTL; Designed peptide) [compound 231]	6
166 (ATITVW; Designed peptide) [compound 166]	6
131 (NHCPSR; Designed peptide) [compound 131]	7
65 (SGTMQE; Designed peptide) [compound 65]	9
146 (RSAAGD; Designed peptide) [compound 146]	7
192 (HLGFHT; Designed peptide) [compound 192]	6
151 (STYRSW; Designed peptide) [compound 151]	7
75 (FTMHTN; Designed peptide) [compound 75]	8
45 (RPFTML; Designed peptide) [compound 45]	10
255 (STLVCP; Designed peptide) [compound 255]	6
120 (IGKGMV; Designed peptide) [compound 120]	7
138 (QLHRHK; Designed peptide) [compound 138]	7
213 (MQFELV; Designed peptide) [compound 213]	6
226 (QCELKD; Designed peptide) [compound 226]	6
172 (ECHHVH; Designed peptide) [compound 172]	6
62 (RALAKR; Designed peptide) [compound 62]	9
203 (ITLIDT; Designed peptide) [compound 203]	6
222 (NSIAHR; Designed peptide) [compound 222]	6
79 (GWYFHA; Designed peptide) [compound 79]	8
7 (GWHETE; Designed peptide) [compound 7]	17
244 (RTVPSS; Designed peptide) [compound 244]	6
156 (VRNLVH; Designed peptide) [compound 156]	7

Substance	Appearance Frequency
196 (HVGLDK; Designed peptide) [compound 196]	6
216 (NCRTRP; Designed peptide) [compound 216]	6
73 (EWAVSK; Designed peptide) [compound 73]	8
190 (HKASHW; Designed peptide) [compound 190]	6
1 (GRRYYI; Designed peptide) [compound 1]	23
202 (ILTHQH; Designed peptide) [compound 202]	6
149 (SDRVIA; Designed peptide) [compound 149]	7
262 (VPLLSR; Designed peptide) [compound 262]	6
8 (PCSYFS; Designed peptide) [compound 8]	17
179 (GCLSHH; Designed peptide) [compound 179]	6
178 (GAKELS; Designed peptide) [compound 178]	6
225 (PWTVPN; Designed peptide) [compound 225]	6
54 (FDHFYS; Designed peptide) [compound 54]	9
135 (NRHLDP; Designed peptide) [compound 135]	7
210 (LSLRSQ; Designed peptide) [compound 210]	6
31 (HIPSRH; Designed peptide) [compound 31]	11
159 (VYFIPD; Designed peptide) [compound 159]	7
137 (QDRVTS; Designed peptide) [compound 137]	7
40 (FPFGST; Designed peptide) [compound 40]	10
13 (SVQSWK; Designed peptide) [compound 13]	15
141 (RHKVHH; Designed peptide) [compound 141]	7
267 (YKASHG; Designed peptide) [compound 267]	6
100 (WDRPAF; Designed peptide) [compound 100]	8
247 (SEHNRY; Designed peptide) [compound 247]	6
153 (TTKYMW; Designed peptide) [compound 153]	7

Substance	Appearance Frequency
264 (WTMSPA; Designed peptide) [compound 264]	6
140 (RFVKRR; Designed peptide) [compound 140]	7
123 (KRGGMV; Designed peptide) [compound 123]	7
261 (VPFPHH; Designed peptide) [compound 261]	6
105 (EEMIVS; Designed peptide) [compound 105]	7
86 (MSTHKV; Designed peptide) [compound 86]	8
51 (VMCPNR; Designed peptide) [compound 51]	10
89 (SRSICS; Designed peptide) [compound 89]	8
236 (RIVLES; Designed peptide) [compound 236]	6
204 (KACAHL; Designed peptide) [compound 204]	6
118 (HSSFSS; Designed peptide) [compound 118]	7
93 (THACAH; Designed peptide) [compound 93]	8
19 (CTYVVE; Designed peptide) [compound 19]	12
94 (TVASNN; Designed peptide) [compound 94]	8
24 (LRSGVN; Designed peptide) [compound 24]	12
268 (YRSNHG; Designed peptide) [compound 268]	6
39 (EMSRHC; Designed peptide) [compound 39]	10
220 (NPVHIK; Designed peptide) [compound 220]	6
9 (GEHAHS; Designed peptide) [compound 9]	15
198 (HYRARY; Designed peptide) [compound 198]	6
171 (DWPYSR; Designed peptide) [compound 171]	6
36 (VNGVSH; Designed peptide) [compound 36]	11
242 (RTISGS; Designed peptide) [compound 242]	6
132 (NHDVRF; Designed peptide) [compound 132]	7
127 (LISRHD; Designed peptide) [compound 127]	7
